In patent publication EP0241395A2, “Sweeteners derived from n-phenylguanidinoacetic and n-phenylethananamidinacetic acids, and compositions containing such sweeteners” (UNIVERSITE CLAUDE BERNARD - LYON 1, priority 1986, dated 1987):

Tested on: groupe de huit goûteurs expérimentés
Experiment: Sweetening power judged by a panel of eight experienced tasters against a sucrose reference solution
Assay type: in vivo
Details: weight basis; for Pouvoir édulcorant: Table II, relative to a 2 % sucrose solution; for pouvoir édulcorant, sur une base pondérale: approximate
Description: Le pouvoir édulcorant des composés préparés dans les exemples suivants a été évalué par un groupe de huit goûteurs expérimentés. Pour cela, les composés, en solution aqueuse à des concentrations variables, sont comparés, sur le plan gustatif, à une solution témoin de saccharose à 2 % et dans certains cas à 5 % et 10 %, c'est-à-dire à des concentrations correspondant à celles utilisées lors d'un usage courant. Le pouvoir sucrant des édulcorants de synthèse varie en effet suivant la concentration de la solution de saccharose utilisée comme référence. Le pouvoir édulcorant du composé testé par rapport au saccharose correspond alors au rapport pondéral qui existe entre le composé et le saccharose à égale intensité édulcorante, c'est-à-dire quand les saveurs sucrées de la solution du composé testé et de la solution témoin de saccharose sont considérées, par une majorité de goûteurs, avoir la même intensité édulcorante.

[1] = by comparison with a 2 % sucrose solution
[2] = by comparison with a 5 % sucrose solution
[3] = by comparison with a 10 % sucrose solution

In the case of `N#Cc1ccc(N=C(NCCc2ccccc2)NCC(=O)O)cc1` [Exemple 53, acide N-[N-phényléthylamino(4-cyanophénylimino)méthyl]-2-aminoéthanoïque], the “Pouvoir édulcorant” value is reported as 8 500, the “pouvoir édulcorant, sur une base pondérale” value [1] is reported as ~8 500 fois celui du saccharose and the “pouvoir édulcorant, sur une base pondérale” value [2] is reported as ~6 100 fois celui du saccharose. The “pouvoir édulcorant, sur une base pondérale” value [3] was ~4 200 fois celui du saccharose.

For `C[C@@H](NC(=Nc1ccc(C#N)cc1)NCC(=O)O)c1ccccc1` [Exemple 54, acide N-[N-(R)-a-méthylbenzylamino (4-cyanophénylimino)méthyl]-2-aminoéthanoïque], the Pouvoir édulcorant was 9000, the “pouvoir édulcorant, sur une base pondérale” value [1] was ~9 000 fois celui du saccharose and the pouvoir édulcorant, sur une base pondérale [2] was roughly 6600 times sucrose. For the same compound, the “pouvoir édulcorant, sur une base pondérale” value [3] was ~2 500 fois celui du saccharose.

With `O=C(O)CNC(=Nc1ccccc1)NCC1CCCCC1` [Exemple 55, acide N-[N-cyclohexylméthylamino (phénylimino)méthyl]-2-aminoéthanoïque] the “Pouvoir édulcorant” value was 3 300, the “pouvoir édulcorant, sur une base pondérale” value [1] was ~3 300 fois celui du saccharose and the “pouvoir édulcorant, sur une base pondérale” value [2] was ~2 500 fois celui du saccharose. The “pouvoir édulcorant, sur une base pondérale” value [3] was ~2 000 fois celui du saccharose.

In the case of `N#Cc1cccc(N=C(NCC(=O)O)NCC2CCCCC2)c1` [Exemple 56, acide N-[N-cyclohexylméthylamino (3-cyanophénylimino)méthyl]-2-aminoéthanoïque], the Pouvoir édulcorant is reported as 5000 and the “pouvoir édulcorant, sur une base pondérale” value [1] is reported as ~5 000 fois celui du saccharose.

For `O=C(O)CNC(=Nc1cc(Cl)cc(Cl)c1)NCC1CCCCC1` [Exemple 57, acide N-[N-cyclohexylméthylamino (3,5-dichlorophénylimino)méthyl]-2-aminoéthanoïque], the Pouvoir édulcorant was 35000 and the “pouvoir édulcorant, sur une base pondérale” value [1] was ~35 000 fois celui du saccharose.

For `O=C(O)CNC(=Nc1ccc(Cl)cc1)NCC1CCCCC1` [Exemple 58, acide N-[N-cyclohexylméthylamino(4-chlorophénylimino)méthyl]-2-aminoéthanoïque], the Pouvoir édulcorant was 3500, the “pouvoir édulcorant, sur une base pondérale” value [1] was ~3 500 fois celui du saccharose and the “pouvoir édulcorant, sur une base pondérale” value [2] was ~2 700 fois celui du saccharose. For the same compound, the “pouvoir édulcorant, sur une base pondérale” value [3] was ~1 500 fois celui du saccharose.

With `N#Cc1ccc(N=C(NCC(=O)O)NCC2CCCCC2)cc1` [Exemple 59, acide N-[N-cyclohexylméthylamino(4-cyanophénylimino)méthyl]-2-aminoéthanoïque] the Pouvoir édulcorant was 35000, the “pouvoir édulcorant, sur une base pondérale” value [1] was ~35 000 fois celui du saccharose and the “pouvoir édulcorant, sur une base pondérale” value [2] was ~28 000 fois celui du saccharose. The “pouvoir édulcorant, sur une base pondérale” value [3] was ~17 000 fois celui du saccharose.

`COC(=O)c1ccc(N=C(NCC(=O)O)NCC2CCCCC2)cc1` [Exemple 60, acide N-[N-cyclohexylméthylamino(4-méthoxycarbonylphénylimino)méthyl]-2-aminoéthanoïque] was tested, and the Pouvoir édulcorant was 1300, the “pouvoir édulcorant, sur une base pondérale” value [1] was ~1 300 fois celui du saccharose and the “pouvoir édulcorant, sur une base pondérale” value [2] was roughly 900 fois celui du saccharose. For the same compound, the “pouvoir édulcorant, sur une base pondérale” value [3] was roughly 500 fois celui du saccharose.

For `O=C(O)CN=C(NCC1CCCCC1)Nc1ccc(C(=O)O)cc1` [Exemple 61, acide N-[N-cyclohexylméthylamino(4-carboxyphénylimino)méthyl]-2-aminoéthanoïque], the “Pouvoir édulcorant” value was 50 and the “pouvoir édulcorant, sur une base pondérale” value [1] was roughly 50 fois celui du saccharose.
